Our source for the IC50 values is patent US6875743B1, “Cell adhesion inhibitors” (Biogen, Inc., priority 1996, dated 2005).

SMILES strings stand for the structures. Numbered stars: 1 amine (or outer) side, 2 acyl side, 3 side chain; on linkers, the order of the positions; unused ones are H or OH. Square brackets hold non-standard residues; d marks the D form. Peptide text beside a SMILES is read from it. * marks the point of attachment. Fmoc = O=C(OCC1c2ccccc2-c2ccccc21)*; X2 = Cc1ccccc1NC(=O)Nc1ccc(CN*)cc1; X1 = O=C(Cc1ccc(N[*:1])cc1)[*:2]; NH(2-Me-phenyl) = Cc1ccccc1N*; PhAc = O=C(Cc1ccccc1)*; Aib = CC(C)(N)C(=O)O; CO = O=C([*:1])[*:2]; X3 = Cc1cccc(N*)n1

For the test, the target named is T1, VLA4 (Homo sapiens, UniProt P05556+P13612).
T1 construct: endogenous in cells; host or cells: Ramos cells
T1 sequence (P13612 34-1032): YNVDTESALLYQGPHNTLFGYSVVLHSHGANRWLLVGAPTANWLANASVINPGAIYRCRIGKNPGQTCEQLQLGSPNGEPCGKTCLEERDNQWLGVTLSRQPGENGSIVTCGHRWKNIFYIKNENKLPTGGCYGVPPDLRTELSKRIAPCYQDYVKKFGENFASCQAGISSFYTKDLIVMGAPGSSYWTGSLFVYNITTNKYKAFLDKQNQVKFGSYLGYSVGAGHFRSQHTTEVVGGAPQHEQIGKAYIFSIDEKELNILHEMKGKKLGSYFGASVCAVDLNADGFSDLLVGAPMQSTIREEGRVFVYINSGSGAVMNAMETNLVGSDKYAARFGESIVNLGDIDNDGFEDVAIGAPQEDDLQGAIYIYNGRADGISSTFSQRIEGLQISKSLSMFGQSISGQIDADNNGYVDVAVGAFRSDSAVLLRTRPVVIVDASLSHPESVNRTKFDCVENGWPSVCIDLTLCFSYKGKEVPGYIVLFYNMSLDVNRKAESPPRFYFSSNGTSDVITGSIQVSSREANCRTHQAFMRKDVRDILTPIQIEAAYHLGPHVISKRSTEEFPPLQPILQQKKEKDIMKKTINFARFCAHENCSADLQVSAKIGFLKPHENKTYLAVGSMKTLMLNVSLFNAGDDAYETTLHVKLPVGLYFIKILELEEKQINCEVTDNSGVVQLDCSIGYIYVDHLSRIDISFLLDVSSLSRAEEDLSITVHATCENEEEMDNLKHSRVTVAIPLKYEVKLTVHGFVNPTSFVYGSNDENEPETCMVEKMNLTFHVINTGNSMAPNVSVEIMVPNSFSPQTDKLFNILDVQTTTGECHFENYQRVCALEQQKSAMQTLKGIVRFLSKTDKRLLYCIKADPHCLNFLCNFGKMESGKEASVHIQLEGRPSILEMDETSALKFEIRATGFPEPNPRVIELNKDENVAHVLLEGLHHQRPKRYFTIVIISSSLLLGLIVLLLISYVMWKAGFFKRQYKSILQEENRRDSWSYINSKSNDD
T1 sequence (P05556 21-798): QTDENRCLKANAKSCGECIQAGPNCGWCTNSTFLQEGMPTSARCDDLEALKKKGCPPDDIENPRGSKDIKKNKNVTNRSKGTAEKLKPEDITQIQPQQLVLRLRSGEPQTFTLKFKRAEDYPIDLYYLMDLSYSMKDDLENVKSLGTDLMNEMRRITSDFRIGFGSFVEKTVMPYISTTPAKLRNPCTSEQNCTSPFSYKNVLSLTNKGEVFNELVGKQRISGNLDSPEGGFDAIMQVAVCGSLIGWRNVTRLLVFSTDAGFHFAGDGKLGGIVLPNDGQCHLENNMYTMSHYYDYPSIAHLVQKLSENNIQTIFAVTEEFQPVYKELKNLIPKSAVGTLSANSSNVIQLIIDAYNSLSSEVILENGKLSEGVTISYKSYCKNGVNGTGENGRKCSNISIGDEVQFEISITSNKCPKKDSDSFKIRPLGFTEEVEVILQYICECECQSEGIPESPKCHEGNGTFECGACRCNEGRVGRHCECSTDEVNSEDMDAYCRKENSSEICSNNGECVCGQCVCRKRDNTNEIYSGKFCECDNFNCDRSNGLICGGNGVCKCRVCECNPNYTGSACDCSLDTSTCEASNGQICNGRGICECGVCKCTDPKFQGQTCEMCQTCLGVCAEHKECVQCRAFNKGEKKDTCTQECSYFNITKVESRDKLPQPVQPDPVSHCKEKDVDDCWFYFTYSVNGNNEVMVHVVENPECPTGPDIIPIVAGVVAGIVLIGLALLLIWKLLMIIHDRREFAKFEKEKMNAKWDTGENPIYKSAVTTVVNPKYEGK
Briefly: Inhibition of VLA4-dependent adhesion to BSA-CS1. The test is classed as cell-based. The conditions noted are these: binding of BCECF-labelled Ramos cells to BSA-CS1 coated wells, 2 mM MnCl2; read-out: IC50.

Take `Cc1ccccc1NC(=O)Nc1ccc(CC(=O)N[C@@H](CC(C)C)C(=O)N2CCC[C@H]2C(=O)N[C@H](C(=O)N[C@@H](CC(=O)O)C(=O)O)C(C)C)cc1` [Compound 341] ({NH(2-Me-phenyl)-CO}-[X1]LPVD-OH): the IC50 was > 10 µM.
Regarding `Cc1ccccc1NC(=O)Nc1ccc(CC(=O)N2CCC[C@H]2C(=O)N[C@@H](CC(=O)O)C(=O)O)cc1` [Compound 342], the IC50 was > 10 µM.
As for `CCC(C)C(NC(=O)C(CC(=O)O)NC(=O)C(NC(=O)C1CCCN1)C(C)C)C(=O)NCc1ccc(NC(=O)Nc2ccccc2C)cc1` (centres unmarked) [Compound 343] (H-PVDI-X2; configuration not given here), the IC50 was > 10 µM.
Turning to `CC[C@H](C)[C@H](NC(=O)[C@@H](CC(=O)O)NC(=O)[C@H](N)C(C)C)C(=O)NCc1ccc(NC(=O)Nc2ccccc2C)cc1` [Compound 344], the half-inhibitory concentration (IC50) was > 10 µM.
For `CC[C@H](C)[C@H](NC(=O)[C@H](CC(=O)O)NC(=O)[C@H](CC(C)C)NC(=O)Cc1ccc(NC(=O)Nc2ccccc2C)cc1)C(=O)O` [Compound 345], the concentration for half-maximal inhibition (IC50) is < 0.05 µM.
Take `Cc1cccc(NC(=O)Nc2ccc(CC(=O)N[C@@H](CC(C)C)C(=O)N[C@@H](CC(=O)O)C(=O)N[C@H](C(=O)N3CCC[C@H]3C(=O)O)C(C)C)cc2)n1` [Compound 346] ({X3-CO}-[X1]LDVP-OH): the IC50 was < 0.05 µM.
On to `CNC(=O)C(C)(C)NC(=O)[C@H](CC(=O)O)NC(=O)[C@H](CC(C)C)NC(=O)Cc1ccccc1` [Compound 351] (PhAc-Leu-Asp-[Aib]-NHMe), for which the IC50 was > 10 µM.
For the molecule `CC(C)C[C@H](NC(=O)OCC1c2ccccc2-c2ccccc21)C(=O)N[C@@H](CC(=O)O)C(=O)N[C@H](C(=O)O)C(C)C` [Compound 366] (Fmoc-Leu-Asp-Val-OH), the IC50 is > 10 µM.
On to `COc1cccc(CC(=O)N[C@@H](CC(C)C)C(=O)N[C@@H](CC(=O)O)C(=O)N[C@H](C(=O)O)C(C)C)c1` [Compound 367], for which the IC50 was > 10 µM.
Regarding `Cc1c(C(=O)N[C@@H](CC(C)C)C(=O)N[C@@H](CC(=O)O)C(=O)N[C@H](C(=O)O)C(C)C)cnn1-c1ccccc1` [Compound 369], the IC50 is > 10 µM.
The value for `Cc1ccc2nc(C(=O)N[C@@H](CC(C)C)C(=O)N[C@@H](CC(=O)O)C(=O)N[C@H](C(=O)O)C(C)C)[nH]c(=O)c2c1` [Compound 370] was > 10 µM.
The value for `CC(C)C[C@H](NC(=O)c1coc2c1C(=O)CCC2)C(=O)N[C@@H](CC(=O)O)C(=O)N[C@H](C(=O)O)C(C)C` [Compound 371] was 0.05 to 10 µM; that for `CC(C)C[C@H](NC(=O)c1cncc(C#Cc2ccccc2)c1)C(=O)N[C@@H](CC(=O)O)C(=O)N[C@H](C(=O)O)C(C)C` [Compound 372] was > 10 µM.
`CC(C)C[C@H](NC(=O)c1cccnc1Sc1ccccc1)C(=O)N[C@@H](CC(=O)O)C(=O)N[C@H](C(=O)O)C(C)C` [Compound 373]: the IC50 was > 10 µM.
As for `CCCc1ccc(C(=O)N[C@@H](CC(C)C)C(=O)N[C@@H](CC(=O)O)C(=O)N[C@H](C(=O)O)C(C)C)cc1` [Compound 374], the IC50 is > 10 µM.
For `CC(C)C[C@H](NC(=O)c1csc(-c2cccnc2)n1)C(=O)N[C@@H](CC(=O)O)C(=O)N[C@H](C(=O)O)C(C)C` [Compound 375], the IC50 fell in the range of 0.05 to 10 µM.
Take `CC(C)C[C@H](NC(=O)c1csc(-c2ccncc2)n1)C(=O)N[C@@H](CC(=O)O)C(=O)N[C@H](C(=O)O)C(C)C` [Compound 376]: the half-inhibitory concentration (IC50) was > 10 µM.
Consider `CC(C)C[C@H](NC(=O)Nc1cnc2ccccc2n1)C(=O)N[C@@H](CC(=O)O)C(=O)N[C@H](C(=O)O)C(C)C` [Compound 380], for which the IC50 is > 10 µM.
As for `CC(C)C[C@H](NC(=O)C1COc2ccc(Cl)cc2C1)C(=O)N[C@@H](CC(=O)O)C(=O)N[C@H](C(=O)O)C(C)C` (some centres unmarked) [Compound 386], the half-maximal inhibitory concentration (IC50) was > 10 µM.
To `CC(C)C[C@H](NC(=O)c1ccc2c(c1)CCO2)C(=O)N[C@@H](CC(=O)O)C(=O)N[C@H](C(=O)O)C(C)C` [Compound 387] belongs > 10 µM.

As usually defined, the IC50 is the point on the concentration scale where inhibition reaches its midpoint.
